Data from US12329852B2, “Sustained-release 9-cis retinoic acid implantable drug delivery pellets for the prevention of postsurgical edema and lymphedema” (UNIVERSITY OF SOUTHERN CALIFORNIA, priority 2019, dated 2025).
“Also recorded” adds a separate entry of the source.

Key:
tail lymphedema [1] = experiment: Lymphatic vessel density, podoplanin immunohistochemistry of tail; type: in vivo, BALB/c mice; details: 0.08 mg/kg daily i.p.
Method: Tail specimens were collected on post-operative day 47. Specimens were harvested to include 1 cm proximal and 1 cm distal the wound, then divided to separate proximal and distal portions. Tails were inked to enable proper orientation, fixed in 10% neutral buffered formalin overnight, decalcified in 10% EDTA (pH: 7.3) for 6 days at 4° C., embedded in paraffin, sectioned at 3-5 μm, then stained with hematoxylin and eosin (H&E) or via immunohistochemical techniques. In summary, sections were deparaffinized, underwent antigen retrieval with sodium citrate buffer, incubated overnight with the primary antibody (1:200) at 4° C., washed, incubated with a suitable secondary antibody (1:200), then stained with immPACT DAB Substrate (Vector Laboratories, Inc, Burlingame, CA) and counterstained with Delafield Hematoxylin (Sigma-Aldrich, USA) diluted 1:4. Podoplanin (clone 8.1.1; sc-53533, Santa Cruz Biotechnology, Inc., Dallas, TX) was used to immunohistochemically mark lymphatics in paraffin embedded tail sections.
(§1) Slides were counterstained with hematoxylin and mounted. All images were obtained with a Keyence BZ-X700 microscope (Itasca, IL) and epidermal and dermal thickness was measured using ImageJ (National Institutes of Health, Betheseda, MD). The thickest part of the epidermis and dermis was measured in 5 high-power fields per section, as previously described. On the immunohistochemically stained slides, podoplanin stained vessels in the dermis and subcutis were quantified in ImageJ. Two high-power fields per section were randomly selected and then analyzed by a blinded reviewer. The reviewer scored the number of podoplanin stained vessels and the area (mm^2) of the dermis and subcutaneous tissue in each image. […]

hind limb lymphedema = experiment: ICG lymphography of hind limb, lymphatic clearance (implantable pellet); type: in vivo, mouse; details: postoperative week 6, 3 to 144 hours after ICG injection
Method: At postoperative week 6, lymphatic clearance was measured using indocyanine green (ICG) lymphography to compare lymphatic function between the treatment and placebo groups. After inducing anesthesia via isoflurane inhalation, a sub-microliter injection system syringe was used to intradermally inject 2 uL of ICG on the dorsal aspect of the second and fifth paw digits. ICG lymphography images were recorded at 1, 3, 6, 12, 24, 48, 72, 96, and 144 hours post-injection. The fluorescence intensity of the lymphography images was quantified at each post-injection time point using ImageJ pixel intensity analysis (National Institutes of Health, Bethesda, MD).
Indocyanine green (ICG) lymphography is a well-established procedure used in clinics by healthcare providers to visualize lymphatic vessels in real-time for the purposes of diagnosis or preoperative planning. When ICG is injected intradermally, it is preferentially picked up and cleared by the lymphatic system. This imaging modality provides rapid visualization of lymphatic vessels and measures lymphatic clearance, acting as a surrogate for lymphatic function. […] Thus, at postoperative week 6 and prior to euthanasia, lymphatic clearance were monitored by quantifying the change in dermal fluorescence of mouse hind limbs injected with ICG.

tail lymphedema [2] = experiment: Oral administration, tail lymphedema, gross tail volume; type: in vivo, BALB/c mice; details: oral gavage in sunflower oil for 6 weeks
Method: Oral administration experiments were performed on 30 adult BALB/c mice, 12 to 14 weeks old, and weighing between 21 and 30 g. Surgical excision of lymphatic vessels at 20-mm from the base of the tail was performed in order to induce secondary lymphedema. Mice receive 9-cis RA dissolved in sunflower oil via oral gavage for 6 weeks in accordance to the dosing regimes in Table 3.

[3] = system: lymphatic vessels of uninjured ears; experiment: Lymphatic analysis of uninjured ears, LYVE-1 whole mount; type: in vivo, BALB/c mice; details: 0.08 mg/kg daily i.p., any duration
Method: Bilateral ears of animals were harvested simultaneously with the diaphragm, removed of all hair using depilatory cream and fixed in 4% paraformaldehyde. The ears were then split between the inner and outer layers under a dissecting microscope and the cartilage removed prior to immunoflourescence staining. The whole mounted specimens were subsequently stained with anti-LYVE-1 and anti-CD-31 antibodies after washing with PBS, permeabilizing with 0.5% Triton X-100 (Sigma-Aldrich, USA), and incubated with the primary antibody (1:500) overnight. Green secondary antibodies (1:200 donkey anti-rabbit Alexa Fluor 488, Thermo Fisher Scientific, Canoga Park, CA) were used to stain for LYVE-1.
as §1

tail lymphedema [4] = experiment: Mouse tail secondary lymphedema model, tail volume (intraperitoneal injection); type: in vivo, BALB/c mice
Method: All experiments were performed in accordance with the The Guide for the Care and Use of Laboratory Animals (National Research Council, 8th ed, 2011) and the Animal Welfare Act. Our protocol was approved by the University of Southern California Institutional Animal Care and Use Committee. Fifty adult BALB/c mice, 12 to 14 weeks old, weighing between 21 and 30 g were purchased from Jackson Laboratories (Jackson, Bar Harbor, ME). Animals were maintained in a temperature and light-controlled environment with ad libitum access to a normal chow diet and water.
A previously well described tail model to induce lymphedema was modified in the present experiments. Mice were anesthetized using 2.5% isofluorane, and a 5-mm wide circumferential skin excision was made 20-mm from the base of the tail. Underlying lymphatic vessels were visualized using isosulfan blue and ligated under a dissecting surgical microscope. Daily bacitracin antibiotic ointment was applied to the surgical site to prevent wound infection and desiccation.
Animals were randomly assigned to one of five groups following surgery: control, 7 days, 14 days, 45 days, and delay. Mice received daily intraperitoneal injections of either 100 μL vehicle solution (90 μL sunflower seed oil/10 μL 100% ethanol) or 0.08 mg/kg 9-cis RA dissolved in 100 μL of vehicle solution [5]. The treatment administered to each group was: (1) control: vehicle for 45 days following surgery, (2) 7 day: 9-cis RA for 7 days, (3) 14 day: 9-cis RA for 14 days, (4) 45 day: 9-cis RA for 45 days, and (5) delay: 9-cis RA for 7 days beginning one week after surgery. Animals with necrotic tails or that developed surgical site infections were sacrificed and excluded from analysis.
Animals were photographed every five days for a 6-week duration, and tail diameter was measured using ImageJ (National Institutes of Health, Bethesda, MD). Measurements were taken at 5-mm intervals from the distal-most edge of the wound for a total of seven measurements per animal for every time point. Total distal tail volume was calculated using the truncated cone formula [8]. Percent change in distal tail volume was recorded, analyzed, and plotted using GraphPad Prism 7 (GraphPad Software, Inc.).

Q: CC1=C(/C=C/C(C)=C\C=C\C(C)=C\C(=O)O)C(C)(C)CCC1 [9-cis RA, 9-cis retinoic acid] was tested. Which “lymphatic vessel density compared to control” value (tail lymphedema [1]; 7-day delay group) did it give?
A: strong trend towards improvement but not statistical significance

Q: And the “lymphatic vessel density compared to control” value (tail lymphedema [1]; 14-day group)?
A: trend towards increased lymphatic density that did not reach statistical significance; also recorded: trending towards significance

Q: What about the “lymphatic vessel density compared to control” value (tail lymphedema [1]; 42-day/45-day group, tails distal to wound, day 47) of the same compound?
A: significantly increased compared to the controls; also recorded: statistically significant difference

Q: And the “lymphatic drainage as change in ICG fluorescence compared to control” value (hind limb lymphedema)?
A: significantly faster lymphatic drainage

Q: What about the “change in gross tail volume” value (tail lymphedema [2]; high dose 30 mg/kg) of the same compound?
A: decreases change in gross tail volume

Q: What about the “change in gross tail volume” value (tail lymphedema [2]; low dose 10 mg/kg, 10 mg/kg) of the same compound?
A: decreases change in gross tail volume

Q: And the “change in gross tail volume” value (tail lymphedema [2]; low dose 10 mg/kg, listed as 9-cis retinoic acid, 10 mg/kg)?
A: most effective for preventing post-surgical tail lymphedema

Q: And the “number of branch points, blind-ended sacs, loops, total length, density of lymphatic vessels in uninjured ears vs vehicle control” value [3]?
A: no significant difference

Q: What about the “tail volume compared to control” value (tail lymphedema [4]; 0.08 mg/kg daily i.p. for 7 days) of the same compound?
A: approached tail volumes similar to the lymphedematous control group past the 4-week time point; also recorded: no significant effect on tail lymphedema or dermal thickening

Q: What about the “tail volume compared to control” value (tail lymphedema [4]; 0.08 mg/kg daily i.p. for 7 days beginning one week after surgery (delay group)) of the same compound?
A: statistically significant decrease in tail volumes from day-14 onwards; also recorded: decreased tail volume

Q: And the “tail volume compared to control” value (tail lymphedema [4]; 0.08 mg/kg daily i.p. for 14 days)?
A: approached tail volumes similar to the lymphedematous control group past the 4-week time point; also recorded: no significant difference in tail volume

Q: And the “tail volume compared to control” value (tail lymphedema [4]; 0.08 mg/kg daily i.p., continuous (45-day/42-day group))?
A: significantly smaller than the lymphedematous controls
